We go through 65 compounds from patent publication US9708359B2, “Pyrrolopyrimidine nucleosides and analogs thereof” (Chimerix, Inc., priority 2015, dated 2017).

Where “and” joins values, the source holds several entries; their conditions need not be identical. Identical values can stand only once. Where only a bound is given, the exact number is not on record here.

Usually EC50 stands for the concentration needed to bring the measured effect to its halfway point. Lower therefore signals greater potency.

One assay relates to mouse norovirus. Put plainly: Mouse Norovirus (MNV) assay in RAW cells. Conditions: murine norovirus, Table 7.
`Cc1nc(N)c2c(C(N)=O)cn([C@@H]3O[C@H](COC(=O)[C@@H](N)C(C)C)[C@@H](O)[C@H]3O)c2n1` [Compound 2] displayed an EC50 of 1.9 to 4.15 µM.
Same read-out and setting: the value for `Cc1nc(N)c2c(C(N)=O)cn([C@@H]3O[C@H](COC(=O)[C@H](C)N)[C@@H](O)[C@H]3O)c2n1` [Compound 3] was 2 µM; that for `CCCCCCCCCCCCCCCCOCCC(=O)OC[C@H]1O[C@@H](n2cc(C(N)=O)c3c(N)nc(C)nc32)[C@H](O)[C@@H]1O` [Compound 4] was 3.5 µM.
Compound `Cc1nc(N)c2c(C(N)=O)cn([C@@H]3O[C@H](COC(=O)[C@@H](N)Cc4ccccc4)[C@@H](O)[C@H]3O)c2n1` [Compound 5] displayed an EC50 of 2.2 µM.
With `[2H][C@@]1(n2cc(C(N)=O)c3c(N)nc(C)nc32)O[C@H](CO)[C@@H](O)[C@H]1O` [Compound 6], the midpoint of the response, the EC50, lay at 3.08 µM.
On the same count and under the same terms, in the case of `Cc1nc(N)c2c(C(N)=O)cn([C@@H]3O[C@H](COP(=O)(O)O)[C@@H](O)[C@H]3O)c2n1` [Compound 71] it was 3.15 µM; in that of `Cc1nc(N)c2c(C(N)=O)cn([C@@H]3O[C@H](COC(=O)[C@H](CC(C)C)NC(=O)OCC4c5ccccc5-c5ccccc54)[C@@H](O)[C@H]3O)c2n1` [Compound 76], 16.4 µM.

Staying with this assay, now noted: murine norovirus, Table 8; N/A = assayed but no EC50 value could be measured.
On to `Cc1nc(O)c2c(C(N)=O)cn([C@@H]3O[C@H](CO)[C@@H](O)[C@H]3O)c2n1` [Compound 7], for which the EC50 was 53.8 µM and 38.4 µM.
`Cc1nc(N)c2c(C(N)=O)cn([C@@H]3O[C@H](CO)[C@@H](O)[C@H]3O)c2[n+]1[O-]` [Compound 8] registered an EC50 of 23.6 µM.
On to `Cc1nc(N)c2c(C(N)=O)cn([C@@H]3O[C@H](CO)[C@@H](O)[C@@H]3O)c2n1` [Compound 9], for which the concentration for a half-maximal effect (EC50) came to 50 µM.
In turn, `Cc1nc(N)c2c(-c3nn[nH]n3)cn([C@@H]3O[C@H](CO)[C@@H](O)[C@H]3O)c2n1` [Compound 10] gave an EC50 of 61.5 µM.
In turn, `Cc1nc(N)c2c(C#N)cn([C@@H]3O[C@H](CO)[C@@H](O)[C@H]3O)c2n1` [Compound 11] had an EC50 above 121 µM.
`CCc1nc(N)c2c(C(N)=O)cn([C@@H]3O[C@H](CO)[C@@H](O)[C@H]3O)c2n1` [Compound 13] gave an EC50 above 200 µM.
The compound `Cc1nc(N)c2c(I)cn([C@@H]3O[C@H](CO)[C@@H](O)[C@H]3O)c2n1` [Compound 14] displayed an EC50 above 100 µM.
Still for that read-out and setting: the value for `NC(=O)c1cn([C@@H]2O[C@H](CO)[C@@H](O)[C@H]2O)c2nc(-c3ccccc3)nc(N)c12` [Compound 15] was above 100 µM.
With `NC(=S)c1cn([C@@H]2O[C@H](CO)[C@@H](O)[C@H]2O)c2nc(-c3ccccc3)nc(N)c12` [Compound 16], the EC50 is above 100 µM.
In the case of `N#Cc1cn([C@@H]2O[C@H](CO)[C@@H](O)[C@H]2O)c2nc(-c3ccccc3)nc(N)c12` [Compound 17], the EC50 was above 100 µM.
In the case of `Cc1nc(N)c2c(C(N)=O)cn([C@@H]3O[C@H](COCc4ccccc4)[C@@H](O)[C@H]3O)c2n1` [Compound 19], the EC50 is above 100 µM.
`Cc1nc(N)c2c(C(N)=O)cn([C@@H]3O[C@H](CO)[C@H]4OC(C)(C)O[C@H]43)c2n1` [Compound 20]: the EC50 is above 20 µM.
`CCOP(=O)(COC[C@H]1O[C@@H](n2cc(C(N)=O)c3c(N)nc(C)nc32)[C@@H]2OC(C)(C)O[C@@H]21)OCC` [Compound 21] gave an EC50 above 100 µM.
With `CCCCCCCCCCCCCCCOCCCOP(=O)(O)COC[C@H]1O[C@@H](n2cc(C(N)=O)c3c(N)nc(C)nc32)[C@@H]2OC(C)(C)O[C@@H]21` [Compound 22], the EC50 is above 100 µM.
On the same count and under the same terms, in the case of `Cc1nc(N)c2c(C(N)=O)cn([C@@H]3O[C@H](COCP(=O)(O)O)[C@@H](O)[C@H]3O)c2n1` [Compound 23] it was above 100 µM.
On the same count and under the same terms, in the case of `CCCCCCCCCCCCCCCCOCCCOP(=O)(O)COC[C@H]1O[C@@H](n2cc(C(N)=O)c3c(N)nc(C)nc32)[C@H](O)[C@@H]1O` [Compound 24] it was above 20 µM; in that of `CCOP(=O)(COC[C@H]1O[C@@H](n2cc(C(N)=O)c3c(N)nc(C)nc32)[C@H](O)[C@@H]1O)OCC` [Compound 25], above 100 µM; in that of `NC(=O)c1cn([C@@H]2O[C@H](CO)[C@@H](O)[C@H]2O)c2nc(C(F)(F)F)nc(N)c12` [Compound 26], above 100 µM.
For `Cc1nc(Cl)c2c(C#N)cn([C@@H]3O[C@H](CO)[C@@H](O)[C@H]3O)c2n1` [Compound 29], the EC50 was above 100 µM.
The compound `COc1nc(C)nc2c1c(C#N)cn2[C@@H]1O[C@H](CO)[C@@H](O)[C@H]1O` [Compound 30] returned an EC50 above 100 µM.
For `Cc1nc(O)c2c(C#N)cn([C@@H]3O[C@H](CO)[C@@H](O)[C@H]3O)c2n1` [Compound 31], the EC50 was above 100 µM.
In turn, `Cc1nc(N)c2c(C(N)=O)c[nH]c2n1` [Compound 32] yielded an EC50 above 100 µM.
In the case of `Cc1nc(N)c2c(C(=O)O)cn([C@@H]3O[C@H](COCc4ccccc4)[C@@H](O)[C@H]3O)c2n1` [Compound 33], the EC50 was above 100 µM.
Turning to `Cc1ncc2c(C(=O)O)cn([C@@H]3O[C@H](CO)[C@@H](O)[C@H]3O)c2n1` [Compound 34], the EC50 is above 100 µM.
For `Cc1ncc2c(C(N)=O)cn([C@@H]3O[C@H](CO)[C@@H](O)[C@H]3O)c2n1` [Compound 35], the EC50 is above 100 µM.
For `CNc1nc(C)nc2c1c(C(N)=O)cn2[C@@H]1O[C@H](CO)[C@@H](O)[C@H]1O` [Compound 36], the EC50 is above 100 µM.
The same measure, in the same setting: in the case of `Cc1nc(N(C)C)c2c(C(N)=O)cn([C@@H]3O[C@H](CO)[C@@H](O)[C@H]3O)c2n1` [Compound 37] it was above 100 µM; in that of `Cc1nc(N)c2c(C(N)=O)cn([C@@H]3O[C@H](CO)[C@@H](O)[C@H]3O)c2n1` [Compound 38], above 100 µM; in that of `CNC(=O)c1cn([C@@H]2O[C@H](CO)[C@@H](O)[C@H]2O)c2nc(C)nc(N)c12` [Compound 39], above 100 µM.
Compound `Cc1nc(N)c2c(C(N)=O)cn([C@@H]3O[C@H](CO)[C@@H](O)C3(F)F)c2n1` [Compound 40] came in with an EC50 above 100 µM.
As for `Cc1nc(N)c2c(C(=O)N(C)C)cn([C@@H]3O[C@H](CO)[C@@H](O)[C@H]3O)c2n1` [Compound 41], the EC50 was above 100 µM.
The compound `COc1nc(C)nc2c1c(I)cn2[C@@H]1O[C@H](CO)[C@@H](O)[C@H]1O` [Compound 42] gave an EC50 above 100 µM.
`CSc1nc(C)nc2c1c(I)cn2[C@@H]1O[C@H](CO)[C@@H](O)[C@H]1O` [Compound 43] showed an EC50 above 100 µM.
On the same count and under the same terms, the value for `Cc1nc(N)c2c(C(N)=O)c(Br)n([C@@H]3O[C@H](CO)[C@@H](O)[C@H]3O)c2n1` [Compound 44] was above 100 µM; that for `COC(=O)c1c[nH]c2nc(C)nc(Cl)c12` [Compound 45] was above 100 µM; that for `Cc1nc(N)c2cc[nH]c2n1` [Compound 46] was above 100 µM.
`COc1nc(C)nc2c1c(CN)cn2[C@@H]1O[C@H](CO)[C@@H](O)[C@H]1O` [Compound 47]: the EC50 was above 100 µM.
On to `Cc1nc(N)c2ccn([C@@H]3O[C@H](CO)[C@@H](O)[C@H]3O)c2n1` [Compound 48], for which the EC50 was above 100 µM.
Regarding `Cc1nc(N)c2c(C(N)=O)cn(C[C@H](O)CO)c2n1` [Compound 50], the EC50 was above 100 µM.
Still for that read-out and setting: in the case of `Cc1nc(N)c2c(C(N)=O)cn(C[C@H](C)O)c2n1` [Compound 51] it was above 100 µM.
In turn, `Cc1nc(N)c2c(C(N)=O)cn(C[C@@H](CO)OCP(=O)(O)O)c2n1` [Compound 52] returned an EC50 above 100 µM.
In turn, `CCOP(=O)(CO[C@H](CO)Cn1cc(C(N)=O)c2c(N)nc(C)nc21)OCC` [Compound 53] displayed an EC50 above 100 µM.
For `Cc1nc(N)c2ccn(C[C@H](C)O)c2n1` [Compound 54], the EC50 was above 100 µM.
Regarding `CCCCCCCCCCCCCCCCOCCCOP(=O)(O)CO[C@H](CO)Cn1cc(C(N)=O)c2c(N)nc(C)nc21` [Compound 56], the EC50 is 75.3 µM.
In the case of `Cc1nc(N)c2c(C(N)=O)cn([C@@H]3O[C@H](CO)[C@@H](O)[C@H]3N=[N+]=[N-])c2n1` [Compound 57], the EC50 is above 100 µM.
Regarding `CCOP(=O)(CO[C@H](C)Cn1cc(C(N)=O)c2c(N)nc(C)nc21)OCC` [Compound 58], the EC50 was above 100 µM.
Take `Cc1nc(N)c2c(C(N)=O)cn(C[C@@H](C)OCP(=O)(O)O)c2n1` [Compound 59]: the EC50 was above 100 µM.
With `COc1nc(C)nc2c1c(C(N)=O)cn2[C@@H]1O[C@H](COC(=O)[C@@H](NC(=O)OC(C)(C)C)C(C)C)[C@@H](O)[C@@]1(C)O` [Compound 61], the EC50 was above 100 µM.
The compound `Cc1nc(N)c2c(C(N)=O)cn(C3(C)O[C@H](COC(=O)[C@@H](N)C(C)C)[C@@H](O)[C@H]3O)c2n1` (stereo partly drawn) [Compound 62] came in with an EC50 above 100 µM.
Compound `Cc1nc(N)c2c(C(N)=O)cn([C@@H]3O[C@H](COC(=O)[C@@H](NC(=O)OCC4C5C=CC=CC5C5C=CC=CC54)C(C)C)[C@@H](O)[C@H]3O)c2n1` (stereo partly drawn) [Compound 63] had an EC50 above 100 µM.
Turning to `CCOP(=O)(COC(CO)Cn1cc(C(N)=O)c2c(N)nc(C)nc21)OCC` (stereo not drawn) [Compound 64], the EC50 was above 100 µM.
`COc1ccc2cc([C@@H](C)C(=O)OC[C@H]3O[C@@H](n4cc(C(N)=O)c5c(N)nc(C)nc54)[C@@H]4OC(C)(C)O[C@@H]43)ccc2c1` [Compound 65] displayed an EC50 above 100 µM.
In turn, `CCOP(=O)(COC[C@@H]1C=C[C@H](n2cc(C(N)=O)c3c(N)nc(C)nc32)O1)OCC` [Compound 67] came in with an EC50 above 100 µM.
For `CCOP(=O)(CO[C@H]1O[C@@H](n2cc(C#N)c3c(N)nc(C)nc32)[C@H](O)[C@@H]1O)OCC` [Compound 68], the EC50 is above 100 µM.
With `Cc1nc(N)c2c(C(N)=O)cn([C@@H]3O[C@H](OCP(=O)(O)O)[C@@H](O)[C@H]3O)c2n1` [Compound 70], the EC50 is above 100 µM.
Same read-out and setting: in the case of `CCOP(=O)(CO[C@H]1O[C@@H](n2cc(C(N)=O)c3c(N)nc(C)nc32)[C@H](O)[C@@H]1O)OCC` [Compound 73] it was above 100 µM; in that of `CCOP(=O)(C[C@H]1O[C@@H](n2cc(C(N)=O)c3c(N)nc(C)nc32)[C@H](O)[C@@H]1O)OCC` [Compound 74], above 100 µM; in that of `Cc1nc(N)c2c(C(N)=O)cn([C@@H]3O[C@H](CP(=O)(O)O)[C@@H](O)[C@H]3O)c2n1` [Compound 75], above 100 µM.

The assay is the same for the next values; noted with them: murine norovirus, Table 8; N/A = assayed but no EC50 value could be measured; listed as compound 7.
The compound `Cc1nc(O)c2c(C(N)=O)cn([C@@H]3O[C@H](CO)[C@@H](O)[C@H]3O)c2n1` [Compound 7] registered an EC50 above 38 µM.
